DC50 and IC50 data for 15 compounds are collected here from US20260028354A1, “TETRAHYDRONAPHTHALENE DERIVATIVES AS ESTROGEN RECEPTOR DEGRADERS” (REGENT OF THE UNIVERSITY OF MICHIGAN, priority 2022, published 2026).

For one assay, the target named is ER (Homo sapiens (Human), UniProt P03372). Description: In-cell western blot analysis of ER for "B" compounds. The format is cell-based. The conditions noted are these: 16 hours, read-out: ICW DC50. A digest of the protocol: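 ER levels given as a percentage of untreated/DMSO-treated wells (100%). Detection used primary antibodies for 2 h at room temperature followed by 680 and 800 nm fluorescent secondaries at 1:1000 for 1 h, read by LI-COR imaging.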
Sequence of ER (P03372 whole entry): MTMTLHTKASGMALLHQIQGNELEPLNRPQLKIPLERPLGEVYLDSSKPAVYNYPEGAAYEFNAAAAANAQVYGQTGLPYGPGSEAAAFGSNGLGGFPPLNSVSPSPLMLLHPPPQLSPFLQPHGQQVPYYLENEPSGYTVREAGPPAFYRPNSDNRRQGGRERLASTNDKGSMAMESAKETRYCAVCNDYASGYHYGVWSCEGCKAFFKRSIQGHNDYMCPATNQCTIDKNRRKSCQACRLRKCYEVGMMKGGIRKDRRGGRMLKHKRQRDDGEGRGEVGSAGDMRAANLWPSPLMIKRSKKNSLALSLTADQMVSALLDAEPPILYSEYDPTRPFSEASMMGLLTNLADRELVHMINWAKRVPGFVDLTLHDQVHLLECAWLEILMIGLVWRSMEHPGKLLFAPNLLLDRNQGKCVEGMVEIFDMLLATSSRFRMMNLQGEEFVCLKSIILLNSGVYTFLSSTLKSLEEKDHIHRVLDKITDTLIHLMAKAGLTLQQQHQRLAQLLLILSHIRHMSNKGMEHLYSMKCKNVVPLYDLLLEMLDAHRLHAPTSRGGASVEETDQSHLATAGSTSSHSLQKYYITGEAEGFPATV

Assay [1] can be described thus: Cell growth assay (WST-8) for "B" compounds. The conditions noted are these: T47D, read-out: Cell growth Inhibition in T47D cell line IC50. The format is cell-based. A digest of the protocol: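 Four-day compound exposure of cells plated at 1500/well the day before. Read-out is WST-8 (10%, 2.5 h, 37 °C) absorbance at 450 nm, normalized to vehicle control over three independent repeats.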

The structures appear in SMILES notation. Where two headings read alike, the source gives them in different places.

The term IC50 denotes the concentration that inhibits the measured activity by half. As for `O=C1CCC(N2Cc3cc4c(cc3C2=O)OC[C@@H]2CN(CC3CC5(CCN(c6ccc([C@@H]7c8ccc(O)cc8CC[C@@H]7c7ccccc7)cc6)CC5)CO3)CCN42)C(=O)N1` (stereo partly drawn) [Compound B173, 3-((4aS)-3-((8-(4-((1R,2S)-6-hydroxy-2-phenyl-1,2,3,4-tetrahydronaphthalen-1-yl)phenyl)-2-oxa-8-azaspiro[4.5]decan-3-yl)methyl)-8-oxo-1,2,3,4,4a,5,8,10-octahydro-9H-pyrazino[1′,2′: 4,5][1,4]oxazino[2,3-f]isoindol-9-yl)piperidine-2,6-dione], on ER, the DC50 is above 100 nM. In addition, the 50% inhibitory concentration (IC50) in assay [1] (T47D cell line) is below 1 nM.
The like results for `O=C1CCC(N2Cc3cc4c(cc3C2=O)OC[C@@H]2CN(C(=O)CN3CC(Nc5ccc([C@@H]6c7ccc(O)cc7CC[C@@H]6c6ccccc6)cc5)C3)CCN42)C(=O)N1` (stereo partly drawn) [Compound B204, 3-((S)-3-(2-(3-((4-((1R,2S)-6-hydroxy-2-phenyl-1,2,3,4-tetrahydronaphthalen-1-yl)phenyl)amino)azetidin-1-yl)acetyl)-8-oxo-1,2,3,4,4a,5,8,10-octahydro-9H-pyrazino[1′,2′:4,5][1,4]oxazino[2,3-f]isoindol-9-yl)piperidine-2,6-dione] were, in that order, below 10 nM and below 1 nM.
The like results for `O=C1CCC(N2Cc3c(ccc4c3OC[C@H]3CN(CC(=O)N5CC(Nc6ccc([C@@H]7c8ccc(O)cc8CC[C@@H]7c7ccccc7)cc6)C5)CCN43)C2=O)C(=O)N1` (stereo partly drawn) [Compound B220, 3-((R)-7-(2-(3-((4-((1R,2S)-6-hydroxy-2-phenyl-1,2,3,4-tetrahydronaphthalen-1-yl)phenyl)amino)azetidin-1-yl)-2-oxoethyl)-1-oxo-1,3,5,5a,6,7,8,9-octahydro-2H-pyrazino[1′,2′:4,5][1,4]oxazino[2,3-e]isoindol-2-yl)piperidine-2,6-dione] were, in that order, above 100 nM and below 1 nM.
The like results for `O=C1CCC(N2Cc3cc4c(cc3C2=O)OC[C@@H]2CN(CC(=O)N3CCC5(C3)CN(c3ccc([C@@H]6c7ccc(O)cc7CC[C@@H]6c6ccccc6)cc3)C5)CCN42)C(=O)N1` (stereo partly drawn) [Compound B152, 3-((S)-3-(2-(2-(4-((1R,2S)-6-hydroxy-2-phenyl-1,2,3,4-tetrahydronaphthalen-1-yl)phenyl)-2,6-diazaspiro[3.4]octan-6-yl)-2-oxoethyl)-8-oxo-1,2,3,4,4a,5,8,10-octahydro-9H-pyrazino[1′,2′:4,5][1,4]oxazino[2,3-f]isoindol-9-yl)piperidine-2,6-dione] were, in that order, below 10 nM and below 1 nM.
In the case of `O=C1CC[C@H](N2Cc3c(ccc4c3OCC43CCN(CC4CCC5(C4)CN(c4ccc([C@@H]6c7ccc(O)cc7CC[C@@H]6c6ccccc6)cc4)C5)CC3)C2=O)C(=O)N1` (stereo partly drawn) [Compound B359, 3-(1′-((2-(4-((1R,2S)-6-hydroxy-2-phenyl-1,2,3,4-tetrahydronaphthalen-1-yl)phenyl)-2-azaspiro[3.4]octan-6-yl)methyl)-6-oxo-6,8-dihydro-2H,7H-spiro[furo[2,3-e]isoindole-3,4′-piperidin]-7-yl)piperidine-2,6-dione], the DC50 at ER is 10 to 100 nM. In addition, the IC50 in assay [1] lay within 1 to 10 nM.
Take `O=C1CCC(N2Cc3c(ccc4c3OC[C@@H]3CN(CC5CCN(c6ccc([C@@H]7c8ccc(O)cc8CC[C@@H]7c7ccccc7)cc6)CC5)CCN43)C2=O)C(=O)N1` (stereo partly drawn) [Compound B306, 3-((S)-7-((1-(4-((1R,2S)-6-hydroxy-2-phenyl-1,2,3,4-tetrahydronaphthalen-1-yl)phenyl)piperidin-4-yl)methyl)-1-oxo-1,3,5,5a,6,7,8,9-octahydro-2H-pyrazino[1′,2′:4,5][1,4]oxazino[2,3-e]isoindol-2-yl)piperidine-2,6-dione]: at ER, the DC50 is above 100 nM. For the same compound, the IC50 in assay [1] (T47D cell line) was below 1 nM.
In the case of `O=C1CCC(N2Cc3cc4c(cc3C2=O)OC[C@@H]2CN(CC3CCC5(CCN(c6ccc([C@@H]7c8ccc(O)cc8CC[C@@H]7c7ccccc7)cc6)CC5)O3)CCN42)C(=O)N1` (stereo partly drawn) [Compound B177, 3-((4aS)-3-((8-(4-((1R,2S)-6-hydroxy-2-phenyl-1,2,3,4-tetrahydronaphthalen-1-yl)phenyl)-1-oxa-8-azaspiro[4.5]decan-2-yl)methyl)-8-oxo-1,2,3,4,4a,5,8,10-octahydro-9H-pyrazino[1′,2′: 4,5][1,4]oxazino[2,3-f]isoindol-9-yl)piperidine-2,6-dione], on ER, the DC50 was above 100 nM. In assay [1] (T47D cell line), the half-inhibitory concentration (IC50) was 1 to 10 nM.
Take `O=C1CCC(N2Cc3c(ccc4c3OCC43CCN(CC(=O)N4CC5(CC(Nc6ccc([C@@H]7c8ccc(O)cc8CC[C@@H]7c7ccccc7)cc6)C5)C4)CC3)C2=O)C(=O)N1` (stereo partly drawn) [Compound B170, 3-(1′-(2-(6-((4-((1R,2S)-6-hydroxy-2-phenyl-1,2,3,4-tetrahydronaphthalen-1-yl)phenyl)amino)-2-azaspiro[3.3]heptan-2-yl)-2-oxoethyl)-6-oxo-6,8-dihydro-2H,7H-spiro[furo[2,3-e]isoindole-3,4′-piperidin]-7-yl)piperidine-2,6-dione]: the DC50 on ER was below 10 nM. For the same compound, the IC50 in assay [1] is below 1 nM.
In the case of `O=C1CCC(N2Cc3c(ccc4c3OC[C@H]3CN(C[C@H]5CCN(c6ccc([C@@H]7c8ccc(O)cc8CC[C@@H]7c7ccccc7)cc6)C5)CCN43)C2=O)C(=O)N1` (stereo partly drawn) [Compound B216, 3-((R)-7-(((R)-1-(4-((1R,2S)-6-hydroxy-2-phenyl-1,2,3,4-tetrahydronaphthalen-1-yl)phenyl)pyrrolidin-3-yl)methyl)-1-oxo-1,3,5,5a,6,7,8,9-octahydro-2H-pyrazino[1′,2′:4,5][1,4]oxazino[2,3-e]isoindol-2-yl)piperidine-2,6-dione], the DC50 at ER was in the range of 10 to 100 nM. Moreover, the IC50 in assay [1] (T47D cell line) was above 10 nM.
The like results for `O=C1CCC(N2Cc3cc4c(cc3C2=O)OC[C@@H]2CN(C(=O)CN3C[C@@H]5CN(c6ccc([C@@H]7c8ccc(O)cc8CC[C@@H]7c7ccccc7)cc6)C[C@@H]5C3)CCN42)C(=O)N1` (stereo partly drawn) [Compound B157, 3-((S)-3-(2-((3aR,6aS)-5-(4-((1R,2S)-6-hydroxy-2-phenyl-1,2,3,4-tetrahydronaphthalen-1-yl)phenyl)hexahydropyrrolo[3,4-c]pyrrol-2(1H)-yl)acetyl)-8-oxo-1,2,3,4,4a,5,8,10-octahydro-9H-pyrazino[1′,2′:4,5][1,4]oxazino[2,3-f]isoindol-9-yl)piperidine-2,6-dione] were, in that order, 10 to 100 nM and below 1 nM.
The corresponding values for `O=C1CCC(N2Cc3cc4c(cc3C2=O)OC[C@@H]2CN(C(=O)CN3CC(Oc5ccc([C@@H]6c7ccc(O)cc7CC[C@@H]6c6ccccc6)cc5)C3)CCN42)C(=O)N1` (stereo partly drawn) [Compound B151, 3-((S)-3-(2-(3-(4-((1R,2S)-6-hydroxy-2-phenyl-1,2,3,4-tetrahydronaphthalen-1-yl)phenoxy)azetidin-1-yl)acetyl)-8-oxo-1,2,3,4,4a,5,8,10-octahydro-9H-pyrazino[1′,2′:4,5][1,4]oxazino[2,3-f]isoindol-9-yl)piperidine-2,6-dione] are below 10 nM and below 1 nM.
The corresponding values for `O=C1CCC(N2Cc3cc4c(cc3C2=O)OC[C@@H]2C[C@H](NCC3CCN(c5ccc([C@@H]6c7ccc(O)cc7CC[C@@H]6c6ccccc6)cc5)CC3)CN42)C(=O)N1` (stereo partly drawn) [Compound B307, 3-((2S,3aS)-2-(((1-(4-((1R,2S)-6-hydroxy-2-phenyl-1,2,3,4-tetrahydronaphthalen-1-yl)phenyl)piperidin-4-yl)methyl)amino)-7-oxo-2,3,3a,4,7,9-hexahydro-1H,8H-pyrrolo[1′,2′:4,5][1,4]oxazino[2,3-f]isoindol-8-yl)piperidine-2,6-dione] are above 100 nM and 1 to 10 nM.
In the case of `O=C1CCC(N2Cc3cc4c(cc3C2=O)OC[C@@H]2CN(CC3COC5(CCN(c6ccc([C@@H]7c8ccc(O)cc8CC[C@@H]7c7ccccc7)cc6)CC5)OC3)CCN42)C(=O)N1` (stereo partly drawn) [Compound B242, 3-((S)-3-((9-(4-((1R,2S)-6-hydroxy-2-phenyl-1,2,3,4-tetrahydronaphthalen-1-yl)phenyl)-1,5-dioxa-9-azaspiro[5.5]undecan-3-yl)methyl)-8-oxo-1,2,3,4,4a,5,8,10-octahydro-9H-pyrazino[1′,2′:4,5][1,4]oxazino[2,3-f]isoindol-9-yl)piperidine-2,6-dione], at ER, the DC50 was below 10 nM. Also, in assay [1] (T47D cell line), the IC50 is below 1 nM.
For the compound `O=C1CCC(N2Cc3c(ccc4c3OCC43CCN(CC(=O)N4CC5(CCN(c6ccc([C@@H]7c8ccc(O)cc8CC[C@@H]7c7ccccc7)cc6)CC5)C4)CC3)C2=O)C(=O)N1` (stereo partly drawn) [Compound B171, 3-(1′-(2-(7-(4-((1R,2S)-6-hydroxy-2-phenyl-1,2,3,4-tetrahydronaphthalen-1-yl)phenyl)-2,7-diazaspiro[3.5]nonan-2-yl)-2-oxoethyl)-6-oxo-6,8-dihydro-2H,7H-spiro[furo[2,3-e]isoindole-3,4′-piperidin]-7-yl)piperidine-2,6-dione], the DC50 on ER is below 10 nM. In addition, the concentration for half-maximal inhibition (IC50) in assay [1] is below 1 nM.
Take `O=C1CC[C@H](NC(=O)c2ccc(N3CCN(CC4CCN(c5ccc([C@@H]6c7ccc(O)cc7CC[C@@H]6c6ccccc6)cc5)CC4)CC3)cc2)C(=O)N1` [Compound B315, N-((S)-2,6-dioxopiperidin-3-yl)-4-(4-((1-(4-((1R,2S)-6-hydroxy-2-phenyl-1,2,3,4-tetrahydronaphthalen-1-yl)phenyl)piperidin-4-yl)methyl)piperazin-1-yl)benzamide]: on ER, the DC50 is above 100 nM. Besides, the IC50 in assay [1] (T47D cell line) lay in the range of 1 to 10 nM.
